Source: ChEMBL document CHEMBL1201862, “PubChem BioAssay data set” (2004)
Active and inactive are the calls of the source.

Legend:
[1] = HepG2 cell cytotoxicity, dose response, cytotoxicity control for Shn3 inhibitor project, CellTiter-Glo, cherry-picked (AID 624134); assay type: functional, cell-based
Coagulation factor XII = target: T1, Coagulation factor XII (Homo sapiens, UniProt P00748); assay type: functional;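 note: activated factor XIIa alpha cleaving a fluorogenic AMC peptide substrate; inhibitor potency from loss of enzyme activity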
T1 sequence (P00748 whole entry): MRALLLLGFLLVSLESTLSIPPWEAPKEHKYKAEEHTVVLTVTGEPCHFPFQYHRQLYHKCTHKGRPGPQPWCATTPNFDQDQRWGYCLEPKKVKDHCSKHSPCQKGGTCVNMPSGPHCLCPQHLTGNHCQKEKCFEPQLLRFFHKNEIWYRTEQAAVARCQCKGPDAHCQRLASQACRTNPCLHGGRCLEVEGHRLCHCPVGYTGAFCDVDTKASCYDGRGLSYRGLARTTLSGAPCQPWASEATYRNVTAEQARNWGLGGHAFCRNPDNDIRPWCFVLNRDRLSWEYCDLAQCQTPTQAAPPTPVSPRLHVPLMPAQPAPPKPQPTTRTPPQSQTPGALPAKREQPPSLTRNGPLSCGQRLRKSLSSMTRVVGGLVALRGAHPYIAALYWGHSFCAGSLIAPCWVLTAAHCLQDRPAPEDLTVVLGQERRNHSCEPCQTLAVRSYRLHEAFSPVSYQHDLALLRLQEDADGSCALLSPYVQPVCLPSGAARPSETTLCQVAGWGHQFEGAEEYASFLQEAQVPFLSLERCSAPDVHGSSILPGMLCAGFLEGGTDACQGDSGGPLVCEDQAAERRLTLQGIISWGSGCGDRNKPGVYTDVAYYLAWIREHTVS

[2] = growth suppression of PTEN-null colon cells, dose response, cell-based, HCT116 PTEN knockout (AID 1047); assay type: functional;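 note: HCT116 colon tumor cells with PTEN knocked out; cells exposed to compound for 60 hours before readout; potency for loss of cell viability measured by luminescence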
[3] = growth suppression of beta-catenin-knockout colon cells, dose response, cell-based, HCT116, human colon tumor (AID 1045); assay type: functional;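 note: HCT116 colon tumor cells with beta catenin knocked out; cells exposed to compound for 60 hours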
[4] = control 3'UTR Renilla luciferase suppression, dose response, counter-screen for Shn3 inhibitor project, cell-based, Clone20-Shn3RL, cherry-picked (AID 624133); assay type: functional
[5] = Shn3 3'UTR reporter inhibitors, dose response, cell-based, Clone20 osteoblasts, firefly luciferase, cherry-picked (AID 624132); assay type: functional;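 note: firefly luciferase luminescence from reporter carrying the Shn3 3'UTR in osteoblasts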
[6] = target: T2, Heat shock factor protein 1 (Mus musculus, UniProt P38532); assay: HSF1 potentiators in luciferase reporter cells, confirmation, cell-based, NIH3T3, luminescence, dose retest (AID 435004); assay type: functional;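 note: stress induced by proteasome inhibitor MG132 added 30 min after compound; luciferase reporter driven by HSF1 response element in NIH3T3 cells; actives raise luminescence as potentiators of the MG132 stress response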
T2 sequence (P38532 whole entry): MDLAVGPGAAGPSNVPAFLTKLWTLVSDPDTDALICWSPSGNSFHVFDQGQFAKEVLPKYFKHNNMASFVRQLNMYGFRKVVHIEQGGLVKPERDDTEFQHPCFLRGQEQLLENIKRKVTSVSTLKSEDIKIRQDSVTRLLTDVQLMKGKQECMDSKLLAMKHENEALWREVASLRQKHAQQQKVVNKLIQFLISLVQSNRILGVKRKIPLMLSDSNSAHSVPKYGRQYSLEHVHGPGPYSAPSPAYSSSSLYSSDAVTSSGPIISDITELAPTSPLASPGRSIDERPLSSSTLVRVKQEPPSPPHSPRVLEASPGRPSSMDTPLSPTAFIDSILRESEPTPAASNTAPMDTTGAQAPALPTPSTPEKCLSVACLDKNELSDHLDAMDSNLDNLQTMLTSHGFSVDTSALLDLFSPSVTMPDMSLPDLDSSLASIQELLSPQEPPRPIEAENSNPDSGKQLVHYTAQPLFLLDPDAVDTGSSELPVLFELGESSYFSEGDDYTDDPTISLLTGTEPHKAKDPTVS

[7] = target: T3, Short transient receptor potential channel 4 (Mus musculus, UniProt Q9QUQ5); assay: mouse TRPC4 channel inhibitors, dose response, cell-based, HEK293 TRPC4/mu-opioid, Fluo-4 calcium (AID 434942); assay type: functional;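 note: potency of inhibitors blocking the TRPC4 calcium response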
T3 sequence (Q9QUQ5 whole entry): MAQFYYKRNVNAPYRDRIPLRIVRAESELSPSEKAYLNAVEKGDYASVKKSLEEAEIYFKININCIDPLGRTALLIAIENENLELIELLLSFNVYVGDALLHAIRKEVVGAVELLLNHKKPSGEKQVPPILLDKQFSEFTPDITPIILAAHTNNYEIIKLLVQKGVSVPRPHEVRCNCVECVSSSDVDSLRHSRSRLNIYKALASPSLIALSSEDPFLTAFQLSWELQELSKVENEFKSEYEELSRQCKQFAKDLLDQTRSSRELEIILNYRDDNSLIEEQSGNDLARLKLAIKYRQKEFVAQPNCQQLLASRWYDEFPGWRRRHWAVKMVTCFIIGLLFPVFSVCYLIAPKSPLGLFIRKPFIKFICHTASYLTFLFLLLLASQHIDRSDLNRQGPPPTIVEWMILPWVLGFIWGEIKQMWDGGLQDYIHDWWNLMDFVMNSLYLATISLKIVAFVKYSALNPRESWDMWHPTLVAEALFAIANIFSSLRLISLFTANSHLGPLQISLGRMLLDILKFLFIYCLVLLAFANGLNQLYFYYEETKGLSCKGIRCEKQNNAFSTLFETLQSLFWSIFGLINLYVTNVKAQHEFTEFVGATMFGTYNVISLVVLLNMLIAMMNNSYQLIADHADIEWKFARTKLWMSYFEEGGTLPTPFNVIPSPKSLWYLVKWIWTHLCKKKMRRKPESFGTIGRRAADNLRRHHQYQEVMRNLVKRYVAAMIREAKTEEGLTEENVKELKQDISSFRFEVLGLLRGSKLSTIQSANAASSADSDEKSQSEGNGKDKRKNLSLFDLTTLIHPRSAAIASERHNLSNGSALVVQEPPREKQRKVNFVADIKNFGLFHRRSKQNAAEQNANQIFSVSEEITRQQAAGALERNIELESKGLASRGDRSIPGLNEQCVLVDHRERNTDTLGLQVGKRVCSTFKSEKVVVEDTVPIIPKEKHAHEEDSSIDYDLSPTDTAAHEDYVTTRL

[8] = target: Ras and Rab interactor 1/Tyrosine-protein kinase ABL1 (Homo sapiens, UniProt P00519+Q13671); assay type: functional;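 note: biochemical TR-FRET dose-response test measuring inhibition of binding between Rin1 and Abl proteins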
[9] = inhibitors of firefly luciferase expression or activity, dose response, H4 neuroglioma cells, luminescence (AID 1990); assay type: functional, cell-based
Vero [10] = assay: cells; assay type: functional, cell-based; conditions: Chlorocebus sabaeus
Vero [11] = assay: cells; assay type: functional; conditions: Chlorocebus sabaeus
[12] = inhibitors of SNCA 5'UTR-driven reporter translation, confirmation, H4 neuroglioma cells, luminescence (AID 1988); assay type: functional, cell-based
[13] = target: T4, Small ubiquitin-related modifier 1 (Homo sapiens, UniProt P63165); assay: inhibitors of SUMO1 peptide binding, dose response, biochemical, fluorescence polarization, uHTS hits (AID 624382); assay type: functional; conditions: read-out: IC50_Mean
[14] = target: T4, Small ubiquitin-related modifier 1; assay: inhibitors of SUMO1 partner interactions, dose response, biochemical, FRET (AID 624383); assay type: functional; conditions: read-out: IC50_Mean
[15] = target: T2, Heat shock factor protein 1; assay: inhibition of MG132-induced HSE-luciferase signal, confirmation, cell-based, NIH3T3, luminescence, dose retest (AID 2382); assay type: functional;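 note: NIH3T3 fibroblasts with HSF1-driven luciferase reporter stressed by proteasome inhibitor MG132; luminescence from HSF1-driven luciferase expression after 8 hours of MG132 stress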
[16] = target: T5, Corticotropin-releasing factor receptor 2/Corticotropin-releasing factor-binding protein (Homo sapiens, UniProt P24387+Q13324); assay: Dose Response confirmation of uHTS hits for small molecule antagonists of the CRF-binding protein and CRF-R2 receptor complex.; assay type: functional; conditions: read-out: IC50_Mean
T5 sequence (Q13324 whole entry): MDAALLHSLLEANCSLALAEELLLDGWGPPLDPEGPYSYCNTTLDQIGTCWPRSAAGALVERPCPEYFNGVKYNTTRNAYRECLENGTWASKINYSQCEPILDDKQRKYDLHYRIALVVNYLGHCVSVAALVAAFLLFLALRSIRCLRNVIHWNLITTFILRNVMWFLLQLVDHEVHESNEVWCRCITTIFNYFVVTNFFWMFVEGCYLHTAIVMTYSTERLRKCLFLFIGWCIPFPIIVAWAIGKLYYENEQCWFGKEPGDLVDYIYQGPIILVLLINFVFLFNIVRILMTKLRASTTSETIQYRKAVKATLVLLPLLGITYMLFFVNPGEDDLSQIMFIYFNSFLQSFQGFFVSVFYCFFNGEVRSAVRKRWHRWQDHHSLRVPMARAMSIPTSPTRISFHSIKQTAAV
T5 sequence (P24387 whole entry): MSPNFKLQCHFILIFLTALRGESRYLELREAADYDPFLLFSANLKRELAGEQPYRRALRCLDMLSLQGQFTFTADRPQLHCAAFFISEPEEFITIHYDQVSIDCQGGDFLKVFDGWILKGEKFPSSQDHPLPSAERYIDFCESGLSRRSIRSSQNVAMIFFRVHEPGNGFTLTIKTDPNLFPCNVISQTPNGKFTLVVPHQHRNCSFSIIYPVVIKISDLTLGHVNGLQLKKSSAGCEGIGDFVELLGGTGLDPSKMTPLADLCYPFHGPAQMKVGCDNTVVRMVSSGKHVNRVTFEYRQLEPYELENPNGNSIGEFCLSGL

[17] = target: T5, Corticotropin-releasing factor receptor 2/Corticotropin-releasing factor-binding protein; assay: activators of CRF receptor 2 with binding protein – uHTS hits, confirmation (AID 602473); assay type: functional; conditions: read-out: EC50_Mean
[18] = CRF-BP/CRF-R2 complex antagonists, dose response, cell-based, uHTS hits, 384-well (AID 651639); assay type: functional, Homo sapiens; conditions: read-out: IC50_Mean
Protein Wnt-3a = Protein Wnt-3a (Mus musculus, UniProt P27467); assay: Wnt3a-driven reporter signaling inhibition, dose response, selectivity assay for Gli-SUFU antagonist project, Wnt-LIGHT cells, luminescence (AID 651570); assay type: functional; conditions: read-out: IC50_Mean;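 note: Wnt-LIGHT reporter cells stimulated with conditioned medium from Wnt3a-producing cells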
[19] = miR-122 activators in hepatoma reporter cells, dose response, cell-based, Huh7 psiCHECK-miR122, Renilla luciferase, cherry-picked (AID 651956); assay type: functional;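 note: huh7 hepatoma cells stably carrying a psiCHECK-2 miR-122 sensor plasmid; renilla luciferase signal reporting endogenous miR-122 activity after 48 h compound exposure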

T4 sequence (P63165 whole entry): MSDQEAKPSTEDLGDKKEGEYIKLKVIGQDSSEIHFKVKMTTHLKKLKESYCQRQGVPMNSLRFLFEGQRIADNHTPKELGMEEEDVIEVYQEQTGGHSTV
Sequence of Ras and Rab interactor 1/Tyrosine-protein kinase ABL1 (P00519 whole entry): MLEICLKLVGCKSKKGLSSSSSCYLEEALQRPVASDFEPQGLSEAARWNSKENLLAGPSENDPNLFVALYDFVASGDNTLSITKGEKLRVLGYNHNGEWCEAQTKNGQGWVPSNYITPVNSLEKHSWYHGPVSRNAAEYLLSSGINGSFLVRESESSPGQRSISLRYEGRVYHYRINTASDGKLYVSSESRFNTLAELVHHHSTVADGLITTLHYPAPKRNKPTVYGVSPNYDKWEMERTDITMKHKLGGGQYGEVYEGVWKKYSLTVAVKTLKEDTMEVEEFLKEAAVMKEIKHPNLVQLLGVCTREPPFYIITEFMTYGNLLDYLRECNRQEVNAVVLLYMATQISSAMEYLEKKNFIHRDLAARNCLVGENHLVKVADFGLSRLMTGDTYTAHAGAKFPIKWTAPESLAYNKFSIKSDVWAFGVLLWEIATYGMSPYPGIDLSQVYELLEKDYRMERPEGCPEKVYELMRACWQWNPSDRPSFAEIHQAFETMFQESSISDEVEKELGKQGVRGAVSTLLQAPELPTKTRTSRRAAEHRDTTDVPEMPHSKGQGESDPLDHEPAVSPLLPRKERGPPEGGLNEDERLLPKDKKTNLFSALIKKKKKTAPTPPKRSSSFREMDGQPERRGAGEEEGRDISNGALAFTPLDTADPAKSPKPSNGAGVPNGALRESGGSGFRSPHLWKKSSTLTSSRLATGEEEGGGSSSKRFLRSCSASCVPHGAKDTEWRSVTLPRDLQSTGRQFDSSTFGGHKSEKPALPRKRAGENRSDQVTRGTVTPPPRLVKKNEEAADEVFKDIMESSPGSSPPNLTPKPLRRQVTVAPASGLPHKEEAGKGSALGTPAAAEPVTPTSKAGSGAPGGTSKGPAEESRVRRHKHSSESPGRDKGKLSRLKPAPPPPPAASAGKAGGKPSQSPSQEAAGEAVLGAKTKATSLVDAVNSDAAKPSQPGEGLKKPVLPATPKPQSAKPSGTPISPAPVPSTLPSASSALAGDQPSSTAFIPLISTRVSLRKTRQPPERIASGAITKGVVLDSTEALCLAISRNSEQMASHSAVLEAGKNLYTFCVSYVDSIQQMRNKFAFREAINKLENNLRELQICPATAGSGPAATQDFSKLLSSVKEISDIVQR
Sequence of Ras and Rab interactor 1/Tyrosine-protein kinase ABL1 (Q13671 whole entry): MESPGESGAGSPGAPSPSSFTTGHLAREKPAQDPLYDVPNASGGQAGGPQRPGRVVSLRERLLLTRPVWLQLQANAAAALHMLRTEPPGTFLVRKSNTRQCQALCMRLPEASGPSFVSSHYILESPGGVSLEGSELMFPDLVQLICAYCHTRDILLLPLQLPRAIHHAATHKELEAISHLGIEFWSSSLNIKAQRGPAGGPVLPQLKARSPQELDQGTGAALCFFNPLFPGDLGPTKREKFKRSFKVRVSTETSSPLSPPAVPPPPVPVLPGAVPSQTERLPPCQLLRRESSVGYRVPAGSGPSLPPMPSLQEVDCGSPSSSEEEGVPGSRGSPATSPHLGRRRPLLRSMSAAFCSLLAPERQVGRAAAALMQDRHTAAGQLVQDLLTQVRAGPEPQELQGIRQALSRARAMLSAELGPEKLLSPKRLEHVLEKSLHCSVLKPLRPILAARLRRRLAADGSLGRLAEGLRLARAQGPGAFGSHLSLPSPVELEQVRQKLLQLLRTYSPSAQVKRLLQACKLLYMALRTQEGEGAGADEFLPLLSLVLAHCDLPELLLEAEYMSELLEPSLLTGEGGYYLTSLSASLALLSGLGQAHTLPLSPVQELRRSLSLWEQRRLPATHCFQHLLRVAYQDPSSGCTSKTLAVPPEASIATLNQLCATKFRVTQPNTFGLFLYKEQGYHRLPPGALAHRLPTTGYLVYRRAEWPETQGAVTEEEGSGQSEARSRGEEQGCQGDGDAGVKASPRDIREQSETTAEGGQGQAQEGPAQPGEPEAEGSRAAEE
Sequence of Protein Wnt-3a (P27467 whole entry): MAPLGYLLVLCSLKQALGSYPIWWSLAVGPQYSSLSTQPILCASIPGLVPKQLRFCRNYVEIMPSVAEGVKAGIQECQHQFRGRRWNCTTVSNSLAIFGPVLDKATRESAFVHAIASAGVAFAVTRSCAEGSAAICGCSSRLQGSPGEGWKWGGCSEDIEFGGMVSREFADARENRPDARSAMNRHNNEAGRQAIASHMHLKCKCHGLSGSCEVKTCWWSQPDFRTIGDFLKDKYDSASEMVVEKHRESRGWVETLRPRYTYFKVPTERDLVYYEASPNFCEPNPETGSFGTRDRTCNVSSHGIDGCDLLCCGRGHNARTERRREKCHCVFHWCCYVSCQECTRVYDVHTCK

SMILES: O=C(CN(C(=O)c1ccccc1Cl)C1CCCCC1)Nc1ccc(Cl)c([N+](=O)[O-])c1
- AC50 [1]: 63.7 µM (active)
- IC50 (Coagulation factor XII): > 50 µM (inactive)
- EC50 [2]: 16.1 µM (active)
- EC50 [3]: 17.4 µM (active)
- AC50 [4]: 10.8 µM (active)
- AC50 [5]: 5.1 µM (active)
- EC50 [6]: > 260 µM (inactive)

SMILES: CCOc1ccccc1N(C(=O)c1snc(C(N)=O)c1N)C(C(=O)NCc1ccccc1)c1ccc(O)cc1 (stereo not given)
- EC50 [7]: 4.22 µM (active)
- IC50 [8]: > 73.5 µM (inactive)

SMILES: O=C(NC1CCCc2c1cnn2-c1ccccc1F)c1ccccn1 (stereo not given)
- EC50 [9]: > 120 µM (not active)
- IC50 (Vero [10]): 5.73 µM (active)
- CC50 (Vero [11]): > 25 µM (active)
- EC50 [12]: 57.4 µM (active)

SMILES: C=C(C)C(=O)Nc1ccc2c(c1)OCCOCCOCCO2
- IC50 [13]: > 66.6 µM (inactive)
- IC50 [14]: 1.74 µM (active)

SMILES: COc1cccc(CNc2ccc(S(N)(=O)=O)cc2)c1OC
- IC50 (Coagulation factor XII): > 50 µM (inactive)
- EC50 [15]: > 195 µM (not active)

SMILES: CCOC(=O)c1c(-c2ccc(OC)c(OC)c2)csc1NC(=O)C1CCCO1 (stereo not given)
- IC50 [16]: 3.95 µM (active)
- EC50 [17]: > 53 µM (inactive)
- IC50 [18]: > 20 µM (inactive)

SMILES: CCOC(CN=c1nc(N(C)C)ss1)OCC
- IC50 (Protein Wnt-3a): 40.4 µM (inactive)

SMILES: CN(C)CC1CCC/C(=C/c2ccc(Cl)cc2)C1=O (stereo not given)
- IC50 (Vero [10]): > 25 µM (active)
- CC50 (Vero [11]): 21.4 µM (active)

SMILES: CN(c1ccccc1)S(=O)(=O)c1ccc(C(=O)Nc2cccc(S(=O)(=O)N3CCOCC3)c2)cc1
- AC50 [19]: 59.3 µM (active)

SMILES: CC(=O)Nc1cccc(-c2ccnc3c2CC(C(=O)NCc2ccc(N4CCN(C)CC4)cc2)O3)c1 (stereo not given)
- IC50 [8]: 14.4 µM (inactive)
